No end group written: not given here.
What was measured:
PAR-2 = assay: FZI/0-PAR-2 AP competitive binding in Caco2 cells; set-up: species or system human
Procedure: FIGS. 4A-4D. FZI/0-PAR-2 AP competitive binding experiments.
FZI/0-PAR-2 AP competitive binding experiments. The activation of PAR-2 requires binding of either its tryptase-generated, cleaved N-terminal portion or the synthetic peptide equivalent, PAR-2 AP, to the receptor's extracellular loop 2 (ECL2) (47). To establish whether FZI/0 binds to the same receptor domain, competitive binding experiments were conducted in Caco2 cells. Cell monolayers were incubated with FITC-FZI/0 (2×10^−8M)) either in the presence of an excess of PAR-2 AP (10^−6M) or a scrambled peptide and then analyzed by fluorescence microscopy.

Caco2 cell monolayers = assay: PAR-2 AP-induced actin rearrangement in Caco2 cell monolayers; format: cell-based, human; conditions: 10^−6M PAR-2 AP, Caco2, vs BSA
Source text: FIGS. 5A to 5D. Actin cytoskeleton arrangement in Caco2 cells exposed to PAR2-AP (FIG. 5A), BSA (FIG. 5B), PAR2-AP+FZI/0 (FIG. 5C), or PAR-2 AP+FZI/1 (FIG. 5D).
Effect of the Zot/zonulin inhibitor FZI/0 on PAR-2 AP-induced actin rearrangement. It has been recently reported that activation of PAR-2 receptor by PAR-2 AP promotes cytoskeletal reorganization (53). To establish whether this effect can be prevented by the synthetic Zot/zonulin peptide inhibitor, FZI/0, immunofluorescence studies were conducted in Caco2 cell monolayers. […] These cytoskeletal changes were blocked by the pre-incubation with 2×10^−6M FZI/0 (FIG. 5C), but not by the scrambled peptide FZI/1 (FIG. 5D). Therefore, PAR-2 AP and FZI/0 appear to bind to the identical structure on enterocytes.

[1] = system: wild-type mouse intestinal tissues; assay: Intestinal TEER in wild-type mice tissues

Substance	binding to Caco2 cells (fluorescent particles) (PAR-2; FITC-labelled FZI/0 vs media control)	displacement of FITC-FZI/0 binding (PAR-2; FITC-FZI/0 2×10^−8M, excess of competitor (PAR-2 AP 10^−6M; 100×))	actin cytoskeleton arrangement (Caco2 cell monolayers)	intestinal resistance (TEER) over time [1]
GGVLVQPG [FZI/0]	significant number of fluorescent particles			
SLIGRL [PAR-2 AP]		significant reduction of FZI/0 immunofluorescent staining particles	dissolution of stress fibers	comparable drop in intestinal resistance
